# In PubChem BioAssay (NCI):
#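 Exposure lasted 48 hours, with cells grown in 96-well plates and compounds tested at five concentrations. Abbreviation: GI50, concentration required for 50% inhibition of growth. TGI denotes the concentration required for complete inhibition of growth.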
# Tested on: 786-0 renal
# Test: NCI tumour cell line growth inhibition, 48 h
Structure (SMILES),GI50 [µM],TGI [µM]
COc1cccc(NCc2nnc(Nc3ccc(Cl)cc3)c3ccccc23)c1,2.22,7.62
Nc1nccc(-c2c(-c3ccc(F)cc3)ncn2CCCN2CCOCC2)n1,> 25,> 25
Cc1cc(C)cc(Nc2cc(C)nc3nc(C(F)(F)F)nn23)c1,37.6,> 100

# Tested on: SK-MEL-28 melanoma
# Test: NCI tumour cell line growth inhibition, 48 h
Structure (SMILES),TGI [µM],GI50 [µM]
O=C(c1ccccc1)c1c2ccccn2c2cccc[n+]12,> 100,
COc1cccc(NCc2nnc(Nc3ccc(Cl)cc3)c3ccccc23)c1,6.17,2.62
Nc1nccc(-c2c(-c3ccc(F)cc3)ncn2CCCN2CCOCC2)n1,> 25,> 25
Cc1cc(C)cc(Nc2cc(C)nc3nc(C(F)(F)F)nn23)c1,> 100,> 100

# Tested on: HOP-92 NSCLC
# Test: NCI tumour cell line growth inhibition, 48 h
Structure (SMILES),TGI [µM],GI50 [µM]
O=C(c1ccccc1)c1c2ccccn2c2cccc[n+]12,> 100,
COc1cccc(NCc2nnc(Nc3ccc(Cl)cc3)c3ccccc23)c1,2.91,0.329
Nc1nccc(-c2c(-c3ccc(F)cc3)ncn2CCCN2CCOCC2)n1,> 25,> 21.7
Cc1cc(C)cc(Nc2cc(C)nc3nc(C(F)(F)F)nn23)c1,97.9,26.2

# Tested on: HOP-62 NSCLC
# Test: NCI tumour cell line growth inhibition, 48 h
Structure (SMILES),TGI [µM],GI50 [µM]
O=C(c1ccccc1)c1c2ccccn2c2cccc[n+]12,> 100,
COc1cccc(NCc2nnc(Nc3ccc(Cl)cc3)c3ccccc23)c1,8.48,2.06
Nc1nccc(-c2c(-c3ccc(F)cc3)ncn2CCCN2CCOCC2)n1,> 25,> 25
Cc1cc(C)cc(Nc2cc(C)nc3nc(C(F)(F)F)nn23)c1,> 100,44

# Tested on: MDA-MB-231 breast
# Test: NCI tumour cell line growth inhibition, 48 h
Structure (SMILES),TGI [µM],GI50 [µM]
O=C(c1ccccc1)c1c2ccccn2c2cccc[n+]12,> 100,
COc1cccc(NCc2nnc(Nc3ccc(Cl)cc3)c3ccccc23)c1,6.32,1.32
Nc1nccc(-c2c(-c3ccc(F)cc3)ncn2CCCN2CCOCC2)n1,> 25,> 25
Cc1cc(C)cc(Nc2cc(C)nc3nc(C(F)(F)F)nn23)c1,> 100,> 100

# Tested on: NCI-H522 lung
# Test: NCI tumour cell line growth inhibition, 48 h
Structure (SMILES),GI50 [µM],TGI [µM]
COc1cccc(NCc2nnc(Nc3ccc(Cl)cc3)c3ccccc23)c1,0.302,3.31
Nc1nccc(-c2c(-c3ccc(F)cc3)ncn2CCCN2CCOCC2)n1,> 25,> 25

# Tested on: K-562 leukemia
# Test: NCI tumour cell line growth inhibition, 48 h
Structure (SMILES),TGI [µM],GI50 [µM]
O=C(c1ccccc1)c1c2ccccn2c2cccc[n+]12,> 100,
COc1cccc(NCc2nnc(Nc3ccc(Cl)cc3)c3ccccc23)c1,13.1,1.49
Nc1nccc(-c2c(-c3ccc(F)cc3)ncn2CCCN2CCOCC2)n1,> 25,> 25

# Tested on: IGROV1 ovarian
# Test: NCI tumour cell line growth inhibition, 48 h
Structure (SMILES),TGI [µM],GI50 [µM]
O=C(c1ccccc1)c1c2ccccn2c2cccc[n+]12,> 100,
COc1cccc(NCc2nnc(Nc3ccc(Cl)cc3)c3ccccc23)c1,6.3,0.904
Nc1nccc(-c2c(-c3ccc(F)cc3)ncn2CCCN2CCOCC2)n1,> 25,> 25
Cc1cc(C)cc(Nc2cc(C)nc3nc(C(F)(F)F)nn23)c1,> 100,> 100

# Tested on: CCRF-CEM leukemia
# Test: NCI tumour cell line growth inhibition, 48 h
Structure (SMILES),TGI [µM],GI50 [µM]
O=C(c1ccccc1)c1c2ccccn2c2cccc[n+]12,> 100,
COc1cccc(NCc2nnc(Nc3ccc(Cl)cc3)c3ccccc23)c1,13.4,2.73
Nc1nccc(-c2c(-c3ccc(F)cc3)ncn2CCCN2CCOCC2)n1,> 25,> 25

# Tested on: UO-31 renal
# Test: NCI tumour cell line growth inhibition, 48 h
Structure (SMILES),GI50 [µM],TGI [µM]
COc1cccc(NCc2nnc(Nc3ccc(Cl)cc3)c3ccccc23)c1,0.608,5.28
Nc1nccc(-c2c(-c3ccc(F)cc3)ncn2CCCN2CCOCC2)n1,11.6,> 25
Cc1cc(C)cc(Nc2cc(C)nc3nc(C(F)(F)F)nn23)c1,> 100,> 100

# Tested on: SK-MEL-5 melanoma
# Test: NCI tumour cell line growth inhibition, 48 h
Structure (SMILES),TGI [µM],GI50 [µM]
O=C(c1ccccc1)c1c2ccccn2c2cccc[n+]12,> 100,
COc1cccc(NCc2nnc(Nc3ccc(Cl)cc3)c3ccccc23)c1,4.18,0.819
Nc1nccc(-c2c(-c3ccc(F)cc3)ncn2CCCN2CCOCC2)n1,> 25,> 25
Cc1cc(C)cc(Nc2cc(C)nc3nc(C(F)(F)F)nn23)c1,> 100,> 100

# Tested on: NCI-H460 lung
# Test: NCI tumour cell line growth inhibition, 48 h
Structure (SMILES),TGI [µM],GI50 [µM]
O=C(c1ccccc1)c1c2ccccn2c2cccc[n+]12,> 100,
COc1cccc(NCc2nnc(Nc3ccc(Cl)cc3)c3ccccc23)c1,7.14,2.69
Nc1nccc(-c2c(-c3ccc(F)cc3)ncn2CCCN2CCOCC2)n1,> 25,> 25
Cc1cc(C)cc(Nc2cc(C)nc3nc(C(F)(F)F)nn23)c1,> 100,> 100

# Tested on: SNB-19 CNS
# Test: NCI tumour cell line growth inhibition, 48 h
Structure (SMILES),GI50 [µM],TGI [µM]
COc1cccc(NCc2nnc(Nc3ccc(Cl)cc3)c3ccccc23)c1,3.5,13
Nc1nccc(-c2c(-c3ccc(F)cc3)ncn2CCCN2CCOCC2)n1,> 25,> 25
Cc1cc(C)cc(Nc2cc(C)nc3nc(C(F)(F)F)nn23)c1,> 100,> 100

# Tested on: SR leukemia
# Test: NCI tumour cell line growth inhibition, 48 h
Structure (SMILES),TGI [µM],GI50 [µM]
O=C(c1ccccc1)c1c2ccccn2c2cccc[n+]12,> 100,
COc1cccc(NCc2nnc(Nc3ccc(Cl)cc3)c3ccccc23)c1,8.85,0.979
Nc1nccc(-c2c(-c3ccc(F)cc3)ncn2CCCN2CCOCC2)n1,> 25,> 25
Cc1cc(C)cc(Nc2cc(C)nc3nc(C(F)(F)F)nn23)c1,> 100,> 100

# Tested on: TK-10 renal
# Test: NCI tumour cell line growth inhibition, 48 h
Structure (SMILES),TGI [µM],GI50 [µM]
O=C(c1ccccc1)c1c2ccccn2c2cccc[n+]12,> 100,
Nc1nccc(-c2c(-c3ccc(F)cc3)ncn2CCCN2CCOCC2)n1,> 25,> 25
Cc1cc(C)cc(Nc2cc(C)nc3nc(C(F)(F)F)nn23)c1,> 100,> 100

# Tested on: BT-549 breast
# Test: NCI tumour cell line growth inhibition, 48 h
Structure (SMILES),TGI [µM],GI50 [µM]
O=C(c1ccccc1)c1c2ccccn2c2cccc[n+]12,> 100,
COc1cccc(NCc2nnc(Nc3ccc(Cl)cc3)c3ccccc23)c1,7.42,1.9
